Experimental data from patent US12708630B2, “Combined therapy of 4′-thio-5-aza-2′-deoxycytidine and Venetoclax” (PINOTBIO, INC., priority 2021, dated 2026).
Like-named read-outs stand apart in the source and are kept apart here.

Tests used:
[1] = tested on: ALL-Patient Derived Xenografts; assay: ALL-Patient Derived Xenografts (PDX); format: in vivo; settings: doses tolerated up to 1.5 mg/kg (0.5, 1, 1.5, 2 mg/kg tested)
Description: To determine the efficacy of Aza-T-dCyd in another indication, T-ALL, we evaluated the efficacy of Aza-T-dCyd in a patient-derived ALL animal model.
Aza-T-dCyd was administered at doses of 0.5, 1, 1.5, and 2 mg/kg in ALL-Patient Derived Xenografts (PDX), with T-dCyd (DNMT1 inhibitor) used as a comparative control.

DNMT3A = DNMT3A expression in HL-60 xenograft tumor samples; format: in vivo, mice; settings: 2 mg/kg NTX-301 intraperitoneally, day 11
Description: As the efficacy of DNMT1 inhibitors correlates with their selective profile for targeting DNMT1 and the de novo methyltransferases DNMT3A and DNMT3B, we confirmed the expression of DNMT1, DNMT3A, and DNMT3B in the Aza-T-dCyd and Decitabine treated groups in this xenograft model (FIG. 27).
In the HL-60 xenograft mice model, 2 mg/kg of NTX-301 (Aza-T-dCyd) or 0.75 mg/kg of Decitabine were administered intraperitoneally, and then tumor samples were collected on day 11 to determine the expression of DNMT1, DNMT3A, and DNMT3B. […] On the other hand, the expression levels of DNMT3A and DNMT3B were different in the Aza-T-dCyd and Decitabine treatment groups.

DNMT3B = DNMT3B (Homo sapiens, UniProt Q9UBC3); assay: Western blotting of Molm13 xenograft cancer tissues, DNMT3B; format: in vivo; set-up: cancer tissues were harvested and analyzed by Western blotting; from tissue; host or cells: Molm13 leukemia xenograft cancer tissue
DNMT1 = DNMT1 (Homo sapiens, UniProt P26358); assay: DNMT1 protein Western blotting in cancer cell lines; format: cell-based; set-up: endogenous in cells; host or cells: MV4-11, KG-1a, CCRF-CEM, NCI-H23, HCT-116, IGROV-1 (also HL-60, THP-1); settings: for DNMT1 protein (Western blotting): AML cell lines MV4-11 and KG-1a
Chain of DNMT1 (P26358 whole entry): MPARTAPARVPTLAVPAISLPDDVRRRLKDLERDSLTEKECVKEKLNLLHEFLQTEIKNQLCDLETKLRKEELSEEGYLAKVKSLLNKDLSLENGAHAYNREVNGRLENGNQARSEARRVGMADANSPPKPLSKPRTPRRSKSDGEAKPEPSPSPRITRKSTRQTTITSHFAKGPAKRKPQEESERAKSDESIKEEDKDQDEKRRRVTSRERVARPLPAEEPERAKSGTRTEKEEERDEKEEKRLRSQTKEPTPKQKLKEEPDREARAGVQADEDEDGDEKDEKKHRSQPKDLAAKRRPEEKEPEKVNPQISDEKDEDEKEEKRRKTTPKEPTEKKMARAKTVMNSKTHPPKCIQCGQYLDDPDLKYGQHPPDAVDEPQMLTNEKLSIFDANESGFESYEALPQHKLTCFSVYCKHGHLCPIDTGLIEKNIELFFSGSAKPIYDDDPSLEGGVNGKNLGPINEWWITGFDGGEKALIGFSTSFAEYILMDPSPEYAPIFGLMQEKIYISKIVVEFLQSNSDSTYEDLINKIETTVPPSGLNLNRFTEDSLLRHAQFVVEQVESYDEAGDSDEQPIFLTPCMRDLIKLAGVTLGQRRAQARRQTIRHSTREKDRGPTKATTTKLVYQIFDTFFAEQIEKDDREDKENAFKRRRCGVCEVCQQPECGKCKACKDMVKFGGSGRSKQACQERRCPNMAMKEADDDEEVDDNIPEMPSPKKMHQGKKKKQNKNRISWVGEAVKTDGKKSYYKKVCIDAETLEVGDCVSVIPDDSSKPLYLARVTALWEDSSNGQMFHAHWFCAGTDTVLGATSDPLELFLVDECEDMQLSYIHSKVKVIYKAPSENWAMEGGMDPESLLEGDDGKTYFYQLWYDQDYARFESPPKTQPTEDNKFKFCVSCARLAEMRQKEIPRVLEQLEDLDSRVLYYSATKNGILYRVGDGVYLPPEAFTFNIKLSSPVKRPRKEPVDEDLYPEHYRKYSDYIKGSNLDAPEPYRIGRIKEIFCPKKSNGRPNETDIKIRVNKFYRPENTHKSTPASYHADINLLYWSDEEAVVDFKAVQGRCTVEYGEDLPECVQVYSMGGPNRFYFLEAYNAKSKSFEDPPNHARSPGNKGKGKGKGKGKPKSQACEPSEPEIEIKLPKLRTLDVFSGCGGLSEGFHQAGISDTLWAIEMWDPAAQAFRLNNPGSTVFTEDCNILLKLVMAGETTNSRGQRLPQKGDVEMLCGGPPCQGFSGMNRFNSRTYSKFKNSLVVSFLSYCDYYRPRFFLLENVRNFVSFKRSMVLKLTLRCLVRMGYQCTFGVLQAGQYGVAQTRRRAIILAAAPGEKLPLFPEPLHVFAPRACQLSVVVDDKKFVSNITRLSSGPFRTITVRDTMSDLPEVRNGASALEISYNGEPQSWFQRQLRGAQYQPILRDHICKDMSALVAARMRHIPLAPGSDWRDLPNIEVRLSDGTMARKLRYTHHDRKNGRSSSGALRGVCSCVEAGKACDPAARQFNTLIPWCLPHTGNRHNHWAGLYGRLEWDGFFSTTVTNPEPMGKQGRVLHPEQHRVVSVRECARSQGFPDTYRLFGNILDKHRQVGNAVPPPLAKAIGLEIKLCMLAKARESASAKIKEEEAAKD

HCT-116 (colorectal) = HCT-116 (colorectal) xenograft model; format: in vivo, Mouse; settings: nude mouse, 1 mg/kg, (4) cycles
Description: The efficacy of Aza-T-dCyd was confirmed by tumor growth curves after administration of Aza-T-dCyd in various solid cancer xenograft models. Aza-T-dCyd at a dose of 1~2 mg/kg was administered repeatedly for 2~6 cycles in QD×5, showing excellent anti-cancer effects (evidenced by test/control (T/C) value≤40%).

[2] = Mouse AUC used for the human PK simulation; settings: in vivo, mice, dose of 2.0 mg/kg
Description: The 96 mg/day must be divided by 3 or 4, resulting in 24 to 32 mg/day.

[3] = tested on: systemic MV4-11 engraftment model; settings: for survival: oral
Description: After establishing a systemic MV4-11 engraftment model that more accurately depicts the disease in humans, Aza-T-dCyd was administered orally at doses ranging from 0.4 to 1.5 mg/kg.
After establishment of the systemic MV4-11 engraftment model, Aza-T-dCyd was administered orally at doses of 1.5, 2.0, and 2.5 mg/kg (using the standard dose/dosing schedule used in preclinical trials for decitabine/azacytidine).
After establishing a systemic MV4-11 engraftment model, blood was collected at pre-treatment (Day 21) and mid-treatment (Day 36, 56, 77) in the Aza-T-dCyd and Decitabine/Azacytidine groups and analyzed for complete blood count (CBC) values.
To determine whether the anti-cancer efficacy in the systemic MV4-11 engraftment model was directly related to the ability to suppress the number of cancer cells, we performed experiments to measure body luminescence after systemic engraftment using the luciferase-transfected Mv4-11 cell line.

HL-60 AML xenograft = HL-60 AML xenograft model; format: in vivo; settings: 2.0 mg/kg
[4] = Pharmacokinetic evaluation in Dog; format: in vivo; settings: for AUC(0-inf) / AUC(0-t) / Cmax / half-life / Tmax: in vivo, Dog; for half-life: read-out: T½ (converted)
Description: Aza-T-dCyd was administered orally and intravenously at various concentrations to Mice, Rats and Dogs to determine the PK profile.

GLP rat Toxicology study = format: in vivo, rats
Description: GLP-Tox studies have been conducted in rats and dogs, with 2 cycles of QD×5d at PO.
In the GLP rat Toxicology study, rats received 2.5, 5, and 10 mg/kg of Aza-T-dCyd (15, 30, and 60 mg/m2) per day.

Nc1ncn([C@H]2CC(O)[C@@H](CO)S2)c(=O)n1 (some centres unmarked) [Aza-T-dCyd, 4′-thio-5-aza-2′-deoxycytidine]
efficacy in pediatric ALL PDX [1]: highly effective
DNMT3A expression level in tumor samples (DNMT3A): not affected
DNMT3B protein of approximately 90 kDa (DNMT3B; Molm13 AML xenograft, above 0.4 mg/kg): clear reduction of DNMT3B protein
DNMT3B in cancer tissues (Western blotting) (DNMT3B; Molm13 xenograft, after administration): strongly inhibited DNMT1 and DNMT3B in a concentration-dependent manner
DNMT1 protein (Western blotting) (DNMT1; 20 nM): completely reduced DNMT1
DNMT1 protein (Western blotting) (DNMT1): reduced DNMT1 protein in a concentration-dependent manner
DNMT1 inhibition (DNMT1; CCRF-CEM (ALL cell line) cells, FIG. 12): inhibits DNMT1
DNMT1 inhibition (DNMT1; CCRF-CEM (ALL) and solid cancer cell line): can inhibit DNMT1 in a concentration-dependent manner
DNMT1 inhibition (DNMT1; KG-1a (AML cell line) cells, FIG. 11): inhibits DNMT1
DNMT1 inhibition (DNMT1; MV4-11 (AML cell line) cells, different concentrations, FIG. 10): inhibits DNMT1
DNMT1 intracellular protein expression (DNMT1; MV4-11, HL-60 and KG-1a cells, 72 hours): expression of DNMT1 was inhibited
DNMT1 inhibition (DNMT1; NCI-H23, HCT-116 and IGROV-1 cell lines, FIG. 13): inhibits DNMT1
DNMT1 inhibition (DNMT1; THP-1 cells, different concentrations): induced DNMT1 inhibition in a dose-dependent manner
Optimal T/C (%) (test/control) (HCT-116 (colorectal)): 21%
AUC [2]: 369 ng·h/mL
anti-AML activity and survival ([3]; Aza-T-dCyd oral 1.5, 2.0 and 2.5 mg/kg, decitabine/azacytidine at standard preclinical dose/schedule): very good anti-AML activity and improved survival
body luminescence ([3]; luciferase-transfected Mv4-11 cell line, systemic engraftment): inhibited body luminescence more strongly than the actual Azacytidine treatment
complete blood count (WBC, RBC, Neutrophil, Platelet) ([3]; mouse, in vivo): no changes
survival ([3]; highest dose (range 0.4 to 1.5 mg/kg)): more than half of the mice survived to the end of the experiment
survival ([3]; lowest dose of 0.4 mg/kg): statistically significant survival improvement
tumor suppression (HL-60 AML xenograft): strong tumor suppression
oral bioavailability ([4]; dogs): orally bioavailable
AUC(0-inf) ([4]; IV 0.33 mg/kg): 1130 ng·h/mL
AUC(0-t) ([4]; IV 0.33 mg/kg): 1050 ng·h/mL
Cmax ([4]; IV 0.33 mg/kg): 552 ng/mL
half-life ([4]; IV 0.33 mg/kg): 2.25 h
AUC(0-inf) ([4]; PO 0.15 mg/kg): 439 ng·h/mL
AUC(0-t) ([4]; PO 0.15 mg/kg): 409 ng·h/mL
Cmax ([4]; PO 0.15 mg/kg): 104 ng/mL
Tmax ([4]; PO 0.15 mg/kg): 1 h
half-life ([4]; PO 0.15 mg/kg): 1.86 h
AUC(0-inf) ([4]; PO 0.33 mg/kg): 880 ng·h/mL
AUC(0-t) ([4]; PO 0.33 mg/kg): 790 ng·h/mL
Cmax ([4]; PO 0.33 mg/kg): 210 ng/mL
Tmax ([4]; PO 0.33 mg/kg): 0.67 h
half-life ([4]; PO 0.33 mg/kg): 2.34 h
AUC(0-inf) ([4]; PO 0.67 mg/kg): 1760 ng·h/mL
AUC(0-t) ([4]; PO 0.67 mg/kg): 1570 ng·h/mL
Cmax ([4]; PO 0.67 mg/kg): 463 ng/mL
Tmax ([4]; PO 0.67 mg/kg): 0.83 h
half-life ([4]; PO 0.67 mg/kg): 2.26 h
AUC(0-inf) ([4]; PO 1.5 mg/kg): 3370 ng·h/mL
AUC(0-t) ([4]; PO 1.5 mg/kg): 3200 ng·h/mL
Cmax ([4]; PO 1.5 mg/kg): 882 ng/mL
Tmax ([4]; PO 1.5 mg/kg): 0.67 h
half-life ([4]; PO 1.5 mg/kg): 1.68 h
AUC(0-inf) ([4]; PO 3.0 mg/kg): 5620 ng·h/mL
AUC(0-t) ([4]; PO 3.0 mg/kg): 5380 ng·h/mL
Cmax ([4]; PO 3.0 mg/kg): 1670 ng/mL
Tmax ([4]; PO 3.0 mg/kg): 0.417 h
half-life ([4]; PO 3.0 mg/kg): 1.65 h
Testicular toxicity, including decreased sperm count (GLP rat Toxicology study; rat): reversible upon discontinuation
Toxicity target organs (GLP rat Toxicology study; rat, 2.5, 5 and 10 mg/kg per day): bone marrow, thymus, heart, and testes
